Source: ChEMBL document CHEMBL1833843, “Diarylpropanes and an arylpropyl quinone from Combretum griffithii” (J Nat Prod, 2011)
≈ marks a conversion by molar mass, not a printed value. Calls of active or inactive are those of the source. No cut-off for these calls is given here.

What was measured:
KB = assay: Cytotoxicity against human KB cells by sulforhodamine B assay; assay type: functional, cell-based
[1] = test system: Mycobacterium tuberculosis; assay: Antimycobacterial activity against Mycobacterium tuberculosis H37Ra by microplate alamar blue assay; assay type: functional
Plasmodium falciparum [2] = assay: Antimalarial activity against multidrug-resistant Plasmodium falciparum K1 assessed as [3H]-hypoxanthine uptake at 10 ug/mL after 24 hrs by scintillation counting; assay type: functional, organism-based
Plasmodium falciparum [3] = assay: Antimalarial activity against multidrug-resistant Plasmodium falciparum K1 assessed as [3H]-hypoxanthine uptake after 24 hrs by scintillation counting
NCI-H187 = assay: Cytotoxicity against human NCI-H187 cells by sulforhodamine B assay; assay type: functional, cell-based
MCF7 = assay: Cytotoxicity against human MCF7 cells by sulforhodamine B assay; assay type: functional, cell-based

COc1ccc(CCCc2ccc(O)c(OC)c2)c(O)c1
IC50 (KB): 2.18 µg/mL (≈ 7.56 µM) | MIC [1]: 3.13 µg/mL (≈ 10.9 µM) | Activity (Plasmodium falciparum [2]): inactive

COc1cc(O)c(O)cc1CCCc1ccc(OC)c(OC)c1
Activity (Plasmodium falciparum [2]): inactive

C[C@H]1[C@@H](O)O[C@@H]2O[C@@]3(C)CC[C@H]4[C@H](C)CC[C@@H]1[C@@]24OO3 [ARTENIMOL]
IC50 (Plasmodium falciparum [3]): 0.001 µg/mL (≈ 0.00352 µM)

COc1cc(CCCc2cc(OC)c(O)cc2OC)ccc1O [GRIFFITHANE A]
IC50 (KB): 2.13 µg/mL (≈ 6.69 µM) | Activity (Plasmodium falciparum [2]): inactive

COc1cc(CCCc2ccc(OC)c(O)c2OC)ccc1O [GRIFFITHANE B]
IC50 (KB): 5.67 µg/mL (≈ 17.8 µM) | Activity (Plasmodium falciparum [2]): inactive

COC1=CC(=O)C(CCCc2ccc(O)c(OC)c2)=CC1=O [GRIFFITHANE D]
IC50 (KB): 1.42 µg/mL (≈ 4.7 µM) | IC50 (NCI-H187): 1.08 µg/mL (≈ 3.57 µM) | IC50 (MCF7): 6.75 µg/mL (≈ 22.3 µM) | Activity (Plasmodium falciparum [2]): inactive

NNC(=O)c1ccncc1 [ISONIAZID]
MIC [1]: 0.23 µg/mL (≈ 1.68 µM)
